Measurements reported in patent publication US10188671B2, “Boron-dipyrrin complex and medicament containing the same” (JAPAN SCIENCE AND TECHNOLOGY AGENCY, priority 2015, dated 2019).

Columns and labels:
[1] = Optical properties in methanol; format: physicochemical
Procedure: The optical properties (in methanol) of compounds 2 to 4 synthesized were determined (Table 1). The compounds 2 to 4 each have maximum absorption at a wavelength at or near 500 nm and emit fluorescence at 509 nm. It was observed that introduction of a perfluoroalkyl group caused some decreases in light absorption coefficients, but little change in their fluorescence quantum yield.

[2] = Photostability under light irradiation (500 nm, methanol); format: physicochemical; conditions: methanol solution, light of 500 nm, 37° C., FIG. 2
Procedure: Next, a methanol solution containing each of compounds 2 to 4 was irradiated with light of 500 nm, and incubated at 37° C. Then, a change in the time course of the absorbance at the maximum light absorption wavelength was measured to compare their photostability (FIG. 2). […] By contrast, compounds 3 and 4, having a perfluoroalkyl group, took 2 hours or longer until complete photofading. […] Reaction with singlet oxygen seems to be primarily responsible for the photofading under visible light irradiation. So, the photostability of the present compounds was considered from the viewpoint of the reactivity with singlet oxygen. First, the HOMO/LUMO levels of compounds 2 to 4 were calculated in accordance with a DFT algorithm (FIG. 3). […] As the HOMO level increases, the compounds are more susceptible to oxygenation by singlet oxygen. Thus, this calculation results agree with the results of the photostability test. […] This reflects the fact that the maximum absorption wavelength is unchanged.

[3] = Absorption spectrum measurement (Test Example 3); format: physicochemical; conditions: for shift of maximum absorption wavelength to the long-wavelength side: 8 vs compound 9, 11 vs F on boron, 12 with R^6 iodine; for Absorbance λmax: Table 2
Procedure: Each absorption spectrum was measured (Table 2). The maximum absorption wavelength of compound 8, in which the dimethylamino phenyl group of compound 9 was changed to a julolidine group, was shifted to the long-wavelength side by 30 nm than that of compound 9. […] The maximum absorption wavelength of compound 12, in which R^6 was iodine, was shifted to the long-wavelength side by 20 nm. This allowed the compound to be efficiently excited by light with a longer wavelength of over 650 nm. In the cases of the carboxyl group- or sulfonic acid group-substituted tetrahydroquinoline derivatives (compounds 13 to 16) so as to introduce a water-soluble substituent, the absorption wavelength was shifted to the short-wavelength side by about 10 nm than that of the julolidine-substituted derivative. It can be deduced from the above results that as the lone electron pair of the nitrogen atom is arranged more stably on the same plane as that of the benzene ring due to the condensed ring structure of the julolidine or tetrahydroquinoline, the absorption wavelength tends to be shifted more to the long-wavelength side.

[4] = molecular target: T1, Aβ1-42 (Homo sapiens, UniProt P05067); test: In vitro Aβ1-42 oxygenation in phosphate buffer under 595 nm light, MALDI-TOF MS; format: biochemical; conditions: for Aβ1-42 oxygenation activity / rate of oxygenation of Aβ1-42: phosphate buffer pH 7.4, 37° C., light at 595 nm, FIG. 5
Procedure: (1) To check whether or not the compounds synthesized actually had Aβ oxygenation activity, in vitro oxygenation experiments were carried out using Aβ1-42 as a substrate. Compound 12 (20 μM) was added to a phosphate buffer solution (pH 7.4) containing Aβ1-42 (20 μM), and the mixture was incubated at 37° C. under LED light irradiation (at a wavelength of 595 nm). Then, a mass spectrometer (MALDI-TOF MS) was used to follow the reaction. Before the light irradiation, native Aβ1-42 and Na^+ adducts were primarily observed. […] (2) The Aβ1-42 oxygenation activities of compounds 8, 11, and 12 were compared (FIG. 5). First, 0.1% TFA aqueous solution containing o-acyliso-Aβ1-42 was diluted with a phosphate buffer solution (PB) (10 mM, pH 7.4) to prepare a native Aβ1-42 solution. To the resulting solution was added a DMSO catalyst stock solution (1.0 M). While incubated at 37° C., the mixture was irradiated with light at 595 nm. […] The heavy metal effect seems to enhance the efficiency of generating singlet oxygen.

[5] = molecular target: T1, Aβ1-42; test: Aβ peptide selectivity test: oxygenation of Aβ1-42; format: biochemical; conditions: 20 μM, pH 7.4, pre-incubated 3 hours, 37° C., 30 min, LED 595 nm, FIG. 9
Procedure: (§1) Compound 14 was used to investigate whether or not a compound of the present invention was able to selectively oxygenate Aβ. First, compound 14 (20 μM) was added to phosphate buffer solutions (pH 7.4) each containing Aβ1-42 (20 μM), angiotensin IV (20 μM) or a methionine enkephalin (20 μM), which solutions had been pre-incubated for 3 hours. The mixtures were incubated at 37° C. for 30 min under LED light irradiation (at a wavelength of 595 nm). Then, a mass spectrometer (MALDI-TOF MS) was used to follow the reaction. Three model peptides having a residue capable of being oxygenated were selected, including angiotensin IV (AT-4), met-enkephalin (ME), and somatostatin (Sat). These three peptides were subjected to the same oxygenation conditions as for Aβ1-42 (FIG. 9).

[6] = system: angiotensin IV (AT-4), met-enkephalin (ME), and somatostatin (Sat); test: Aβ peptide selectivity test: oxygenation of non-amyloid model peptides; format: biochemical; conditions: same oxygenation conditions as for Aβ1-42, FIG. 9
Procedure: as §1

T1 sequence (P05067 672-713 limits assumed): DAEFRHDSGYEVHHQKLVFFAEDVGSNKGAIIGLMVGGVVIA

SMILES	Absorbance λmax [1] [nm]	Emission λmax [1] [nm]	Φfl (fluorescence quantum yield) [1]	ϵ (light absorption coefficient) [1] [M⁻¹ cm⁻¹]	shift of maximum absorption wavelength to the long-wavelength side [3]	Absorbance λmax [3] [nm]	Aβ1-42 oxygenation activity [4]	further results
CC1=CC(C)=[N+]2C1=Cc1c(C)cc(C)n1[B-]2(F)F [Compound 2, reference compound]	502	509	0.80	81400				time to substantial photofading [2]: about 30 min
CC1=CC(C)=[N+]2C1=Cc1c(C)cc(C)n1[B-]2(F)C(F)(F)F (stereo not drawn) [Compound 3]	502	509	0.80	74000				
CC1=CC(C)=[N+]2C1=Cc1c(C)cc(C)n1[B-]2(F)C(F)(F)C(F)(F)F (stereo not drawn) [Compound 4]	503	509	0.79	72600				
CC1=CC(C)=[N+]2C1=Cc1c(C)cc(/C=C/c3cc4c5c(c3)CCCN5CCC4)n1[B-]2(F)F [Compound 8]					30 nm	639	helped oxygenate Aβ1-42 under the light irradiation	
CC1=CC(C)=[N+]2C1=Cc1c(C)cc(/C=C/c3cc4c5c(c3)CCCN5CCC4)n1[B-]2(F)C(F)(F)F (stereo not drawn) [Compound 11]					almost no observable change	640	helped oxygenate Aβ1-42 under the light irradiation	rate of oxygenation of Aβ1-42 [4]: faster oxygenation rate than the compounds 8
CC1=C(I)C(C)=[N+]2C1=Cc1c(C)cc(/C=C/c3cc4c5c(c3)CCCN5CCC4)n1[B-]2(F)C(F)(F)F (stereo not drawn) [Compound 12]					20 nm	660	helped oxygenate Aβ1-42 under the light irradiation	Aβ1-42 oxygenation (oxygen adducts by MALDI-TOF MS) ([4]; compound 20 μM, Aβ1-42 20 μM, pH 7.4, 37° C., LED 595 nm, FIG. 4): there appeared ion peaks indicating the presence of oxygen adducts in a time-dependent manner; rate of oxygenation of Aβ1-42 [4]: significantly faster
Cc1cc2nc3c(=O)[nH]c(=O)nc-3n(C[C@H](O)[C@H](O)[C@H](O)CO)c2cc1C [riboflavin]								oxygenation activity toward Aβ1-42 [5]: a certain oxygenation activity on all the peptides; oxygenation of the other (non-amyloid) peptides [6]: a certain oxygenation activity on all the peptides
